For data set [1], the system named is rats. The data set is described as follows: conflict test: anxiolytic (punished) and sedative (unpunished) effect on water consumption. The settings on record: for water uptake, without electric current / water uptake, with electric current: 0.5 hour; for minimal effective dose: Rattus norvegicus, sc, s.c. Format: in vivo, Male CFY rats. As to the method:
(§1) The pharmacological activity of 3-amino-4-ethylthio-quinoline is substantiated by the following tests. As test compound 3-amino-4-ethylthio-quinoline-hydrochloride (referred to further as "Compound A") is used.
Anxiolytic and sedative effects are studied according to the following conflict test. […] On the other hand, sedative effect can be observed but in a dose of 25 mg/kg. Thus the ratio of the anxiolytic and sedative doses amounts to 25,000: 2.5=10,000. The same value of chlordiazepoxide is 10:0.1=100. It appears that in the case of Compound A the dissociation between the sedative and anxiolytic doses is extremely high.
The essential strategy for measuring the anti-anxiety effect of a drug is to check its activity in a conflict situation. We elicit a rewarded response, then suppress that response by punishing it when it occurs and the anti-anxiety effect is measured by the drug-induced increase in punished responding, whereas the sedative effect is measured by the drug-induced decrease of unpunished responding.
A rat, deprived of food for 96 hours and supplied with water ad libitum, drinks about 7 ml water during the 4th day of food deprivation, but needs 35 ml water daily when supplied with dry food [for review see Knoll, J. J., Neural Transm. 59, 163-194 (1984)]. This means that when we circuit the drinking tube and the grid floor of the cage and the rat is regularly shocked by trying to drink, the very hungry animal, which cannot eat without drinking, is maximally forced to overcome the hindrance. This is a sensitive test to check the anti-anxiety effect of a compound.
Male CFY rats, weighing 230-250 g, fed with standard food pellets and supplied with tap water ad libitum, were kept under controlled standard environmental conditions (room temperature between 22°-24° C.) in groups of ten for two weeks until used in the experiment. The rats kept in single cages during starvation were deprived of food for 96 hours and supplied with tap water ad libitum before the experiment.
Another aspect of the selection of the animals for the experiment was their visible physical fitness and normal activity after starvation. Less than 10 percent of the rats were excluded from the experiment because of insufficient physical fitness.
A clear Plexiglass box (39×27×12 cm) with a stainless-steel grid floor supplied with a tray for the food pellets and with a drinking tube was used for the experiment. The grid floor, the drinking tube and an electric stimulator (Grass S48) were connected and electric shocks in this circuit were delivered for 10 s duration with 20 s intervals. The parameters of the current (100V; 25 ohm; 7.5 ms; 5 Hz) were empirically selected using those electric shocks which inhibited the water consumption of the very hungry rats to one third of the control (unpunished) level.
The rats spend one hour in the apparatus after 96 hours of food deprivation. The very hungry rats eat 5-6 g of food pellets during the first hour of the feeding period after the long starvation. […] In the punished situation the consumption was reduced to less than 3 ml.
The drugs were administered parenterally in doses of 0.5 ml/100 g body weight. We refrained from the oral administration of the compounds because of the long term food deprivation.

Another data set has as its system inactine narcosis time. The data set is described as follows: narcosis potentiating effect, inactine narcosis. Format: in vivo, rats.
Description: as §1
(§2) The narcosis potentiating effect of Compound A (on rats) is very strong if inactine is used.

Data set [2] has as its system spasms induced by tetracor. The data set is described as follows: spasmolytic effect on spasms induced by tetracor. It is filed as in vivo.
Description: as §1

The test system of data set [3] is two-way conditioned avoidance reflex. The data set is described as follows: shuttle box (two-way conditioned avoidance reflex). It is filed as in vivo. The settings on record: rats, 100 mg/kg p.o.
Description: as §1

Data set [4] concerns hexobarbital narcosis time. The data set can be described thus: narcosis potentiating effect, hexobarbital narcosis. Format: in vivo, rats. The settings on record: compared with inactine.
Description: as §1, §2

For a further data set, the system named is spontaneous motility. The data set can be described thus: spontaneous motility. Format: in vivo. Particulars: rats.
Description: as §1

The next data set concerns calypsol narcosis time. The data set is described as follows: narcosis time of non-barbiturate phenyclidine derivative (calypsol). Format: in vivo, rats.
Data set [5] relates to one-way conditioned avoidance. The data set can be described thus: one-way conditioned avoidance test (screening test I). Format: in vivo. The settings on record: 100 mg/kg p.o.
Description: as §1

Another data set deals with benzodiazepine receptors. The data set can be described thus: displacement of diazepame from benzodiazepine receptors. Format: binding.
The next data set deals with metabolism. The data set is described as follows: influence on metabolism. Particulars: rats, 100 mg/kg p.o. Format: in vivo.
Description: as §1

A short description of the next data set: "hot-plate" test. Format: in vivo.
Description: as §1

Data set [6] deals with unconditioned avoidance reflex. The data set can be described thus: modified jumping test. Format: in vivo. Particulars: 50 and 100 mg p.o.
Description: as §1

A further data set can be described thus: acute toxicity (LD50). The settings on record: rat, in vivo, rats.
Description: as §1

Data set [7] concerns rats. The data set is described as follows: algolytic test. It is filed as in vivo.
Description: as §1
Compound A is ineffective in the algolytic test (on rats).

Entries after “also recorded” stand apart in the source; their conditions may differ. Read-outs that look alike come from different tables or passages of the source.

Consider `CCSc1c(N)cnc2ccccc12` [3-amino-4-ethylthio-quinoline], for which, in the data set on rats [1] (general statement), the anxiolytic effect entry was “particularly potent anxiolytic; also recorded: highly selective anxiolytic effect” and the sedative effect result is given as “devoid of sedative”. In addition, the narcosis potentiating effect result with inactine narcosis time (general statement) was “particularly potent anxiolytic and narcosis potentiating effect”. For the same compound, the anticonvulsive effect result in data set [2] (general statement) is “devoid of sedative and anticonvulsive effects”.

The term ED50 denotes the midpoint of the dose-response relation. Lower therefore signals greater potency. A word on the LD50: it is the dose at which mortality reaches 50%. Take `CCSc1c(N)cnc2ccccc12.Cl` [Compound A, 3-amino-4-ethylthio-quinoline-hydrochloride]: the “inhibition of learning ability” value in [3] was “inhibits learning ability on rats significantly”. In addition, the “prolongation of hexobarbital narcosis time” value in data set [4] is on record as “to a much weaker extent”. Also, the “inhibition of spontaneous motility” value with spontaneous motility (25 mg/kg) is “inactive”; with spontaneous motility (50 and 100 mg/kg p.o.) it was “moderately in a dose-independant manner”. In the data set with calypsol narcosis time, the “effect on narcosis time of calypsol” value is “does not lengthen the narcosis time”. In data set [5], the “inhibiting effect in one-way conditioned avoidance test” value is “very weak inhibiting effect”. Besides, the “displacement of diazepame from the benzodiazepine receptors” value in the data set on benzodiazepine receptors is “displaces diazepame from the benzodiazepine receptors”. Besides, the “water uptake, without electric current” value in the data set on rats [1] (0.25 mg/kg s.c., 10 animals) turned out to be 6.1 ± 0.46 mL; in the data set with rats [1] (5 mg/kg s.c., 10 animals) it was 7.2 ± 0.37 mL; in the data set with rats [1] (10 mg/kg s.c., 10 animals), 6.9 ± 0.43 mL; with rats [1] (25 mg/kg s.c., 7 animals, p < 0.01), 3.4 ± 0.60 mL. For the same compound, the “water uptake, with electric current” value in the data set with rats [1] (0.25 mg/kg s.c., 10 animals, p < 0.05) is 3.3 ± 0.45 mL; in the data set on rats [1] (2.5 γ/kg s.c., 10 animals, p < 0.05) it was 3.4 ± 0.43 mL; with rats [1] (5 γ/kg s.c., 10 animals, p < 0.001), 4.1 ± 0.66 mL; in the data set with rats [1] (10 γ/kg s.c., 10 animals), 2.7 ± 0.33 mL; in the data set with rats [1] (25 γ/kg s.c., 10 animals), 2.8 ± 0.38 mL. Further, the minimal effective dose stood at 0.0025 mg/kg in the data set on rats [1] (with electric current, read-out: dose significantly increasing water consumption punished by trains of electric shock (anxiolytic dose)) and 25 mg/kg in the data set on rats [1] (without electric current, read-out: dose at which sedative effect can be observed). In the data set on rats [1] (general statement), the anxiolytic effect entry is reported as “extremely active anxiolytic agent”. In the data set on rats [1], the “ratio of the anxiolytic and sedative doses” value is reported as 10,000. The influence on metabolism result in the data set with metabolism was “does not influence metabolism”. The 50% effective dose (ED50) in the data set “"hot-plate" test” (oral) amounted to 49 mg/kg; in “"hot-plate" test” (sc), 40 mg/kg. Besides, the “inhibition of the unconditioned avoidance reflex” value in [6] is on record as “does not inhibit”. The “ED500 (dose which causes a five-fold prolongation of the inactine narcosis time)” value in the data set with inactine narcosis time (p.o., rats) worked out at 3.4 mg/kg; with inactine narcosis time (s.c., rats) it was 3.5 mg/kg. In addition, the narcosis potentiating effect entry in the data set on inactine narcosis time (rats, inactine) is reported as “very strong”. Besides, the “spasmolytic effect on spasms induced by tetracor” value in [2] (25 and 100 mg/kg p.o.) is reported as “no spasmolytic effect”. Besides, the LD50 in “acute toxicity (LD50)” (sc) was 320 mg/kg; in the data set “acute toxicity (LD50)” (oral), 420 mg/kg. Also, the “activity in the algolytic test” value in the data set with rats [7] was “ineffective”.

Consider `CNC1=Nc2ccc(Cl)cc2C(c2ccccc2)=[N+]([O-])C1` [chlordiazepoxide, reference compound], for which the “ratio of the anxiolytic and sedative doses” value with rats [1] came to 100.

The record behind these values is patent US4921861A, “Pharmaceutical compositions” (BASF Aktiengesellschaft, priority 1987, dated 1990).
